The values that follow come from publication PMC6515286 (Molecules, 2019).

One experiment concerns the target D2 receptor (Homo sapiens, UniProt P14416). The experiment can be described thus: in vitro binding to D2 receptor (screening protocol). Conditions: read-out: Ki ± SD D2. How it is done: (§1) The ligands obtained in the synthesis (10a–r) were tested in vitro for binding to D2, 5-HT1A, 5-HT2A, 5-HT6, and 5-HT7 receptors on the basis of the screening protocol described previously (Table 6).

Another experiment has as its target 5-HT2A receptor (Homo sapiens, UniProt P28223). The experiment can be described thus: in vitro binding to 5-HT2A receptor (screening protocol). Conditions: read-out: Ki ± SD 5-HT2A. How it is done:
as §1

The target of the next experiment is 5-HT6 receptor (Homo sapiens, UniProt P50406). The experiment can be described thus: in vitro binding to 5-HT6 receptor (screening protocol). The note with it: read-out: Ki ± SD 5-HT6. How it is done: as §1
In the next experiment the target is 5-HT7 receptor (Homo sapiens, UniProt P34969). The experiment can be described thus: in vitro binding to 5-HT7 receptor (screening protocol). The note with it: read-out: Ki ± SD 5-HT7. How it is done: as §1
For a further experiment, the target named is T1, 5-HT1A receptor (Homo sapiens, UniProt P08908).
T1 sequence (P08908 1-422): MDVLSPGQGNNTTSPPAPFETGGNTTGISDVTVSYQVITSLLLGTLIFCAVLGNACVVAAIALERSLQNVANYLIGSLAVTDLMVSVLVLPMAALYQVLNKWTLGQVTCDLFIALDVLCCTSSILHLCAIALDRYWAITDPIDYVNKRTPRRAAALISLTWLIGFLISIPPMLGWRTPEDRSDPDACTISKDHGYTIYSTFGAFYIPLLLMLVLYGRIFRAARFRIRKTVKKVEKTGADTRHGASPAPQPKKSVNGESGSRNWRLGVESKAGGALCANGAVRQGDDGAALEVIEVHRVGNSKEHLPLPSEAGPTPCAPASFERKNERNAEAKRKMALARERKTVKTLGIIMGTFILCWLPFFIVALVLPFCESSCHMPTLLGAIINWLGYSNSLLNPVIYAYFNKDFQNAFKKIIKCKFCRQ
Description: in vitro binding to 5-HT1A receptor (screening protocol). Conditions: read-out: Ki ± SD 5-HT1A. How it is done: as §1

Molecules are shown by their SMILES. Where a name gives a salt, the structure may show the parent alone.

Sequence of 5-HT2A receptor (P28223 whole entry): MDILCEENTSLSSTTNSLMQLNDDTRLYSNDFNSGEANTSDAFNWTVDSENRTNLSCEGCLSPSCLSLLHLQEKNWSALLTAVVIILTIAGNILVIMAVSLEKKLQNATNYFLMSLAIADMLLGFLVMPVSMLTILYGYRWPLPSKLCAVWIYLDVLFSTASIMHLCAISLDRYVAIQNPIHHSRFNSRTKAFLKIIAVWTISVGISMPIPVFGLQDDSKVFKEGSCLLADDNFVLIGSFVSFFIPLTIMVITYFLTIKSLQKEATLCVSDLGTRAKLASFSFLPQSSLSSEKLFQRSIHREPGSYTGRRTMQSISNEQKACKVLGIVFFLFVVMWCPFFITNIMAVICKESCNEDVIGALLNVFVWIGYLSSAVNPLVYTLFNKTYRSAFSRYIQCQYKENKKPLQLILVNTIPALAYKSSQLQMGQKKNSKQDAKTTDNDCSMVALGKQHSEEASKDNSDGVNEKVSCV
Sequence of 5-HT6 receptor (P50406 whole entry): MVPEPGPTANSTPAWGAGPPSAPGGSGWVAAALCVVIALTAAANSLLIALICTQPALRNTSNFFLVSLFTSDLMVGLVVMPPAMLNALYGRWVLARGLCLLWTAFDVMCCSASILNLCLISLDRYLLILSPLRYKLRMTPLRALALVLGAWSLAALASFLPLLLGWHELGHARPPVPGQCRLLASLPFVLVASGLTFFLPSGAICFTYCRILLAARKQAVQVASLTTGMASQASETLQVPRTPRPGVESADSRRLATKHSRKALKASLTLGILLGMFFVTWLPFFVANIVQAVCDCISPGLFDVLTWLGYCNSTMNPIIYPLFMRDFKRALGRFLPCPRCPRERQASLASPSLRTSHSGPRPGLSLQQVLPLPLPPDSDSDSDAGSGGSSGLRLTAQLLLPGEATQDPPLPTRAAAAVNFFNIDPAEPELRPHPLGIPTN
Sequence of 5-HT7 receptor (P34969 whole entry): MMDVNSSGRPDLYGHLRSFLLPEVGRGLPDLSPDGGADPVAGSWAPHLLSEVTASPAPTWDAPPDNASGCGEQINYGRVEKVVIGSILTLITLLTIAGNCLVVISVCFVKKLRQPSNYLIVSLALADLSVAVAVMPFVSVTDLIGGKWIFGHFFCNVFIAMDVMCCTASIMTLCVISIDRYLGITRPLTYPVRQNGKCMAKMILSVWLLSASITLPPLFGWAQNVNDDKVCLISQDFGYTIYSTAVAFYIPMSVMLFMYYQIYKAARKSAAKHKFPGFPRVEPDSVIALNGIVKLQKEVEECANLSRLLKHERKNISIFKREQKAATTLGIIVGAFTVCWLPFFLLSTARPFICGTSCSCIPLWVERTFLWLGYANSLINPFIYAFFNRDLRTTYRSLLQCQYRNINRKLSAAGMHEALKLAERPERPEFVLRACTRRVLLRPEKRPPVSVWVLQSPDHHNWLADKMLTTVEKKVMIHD
Sequence of D2 receptor (P14416 whole entry): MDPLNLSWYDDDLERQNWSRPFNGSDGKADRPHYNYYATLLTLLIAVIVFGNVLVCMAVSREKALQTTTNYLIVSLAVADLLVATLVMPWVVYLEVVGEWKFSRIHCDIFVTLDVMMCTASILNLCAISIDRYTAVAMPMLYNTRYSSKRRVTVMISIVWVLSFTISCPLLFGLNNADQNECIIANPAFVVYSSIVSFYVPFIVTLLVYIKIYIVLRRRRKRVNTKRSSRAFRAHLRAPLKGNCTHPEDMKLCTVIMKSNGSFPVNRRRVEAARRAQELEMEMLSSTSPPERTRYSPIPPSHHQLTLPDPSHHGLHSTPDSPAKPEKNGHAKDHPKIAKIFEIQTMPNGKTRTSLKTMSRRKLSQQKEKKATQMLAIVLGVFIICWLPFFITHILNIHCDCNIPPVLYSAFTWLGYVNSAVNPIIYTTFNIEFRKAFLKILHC

For the molecule `O=c1n(CCCN2CCN(c3cccc(Cl)c3Cl)CC2)nc2ccccn12` [10a, 2-[3-[4-(2,3-dichlorophenyl)piperazin-1-yl]propyl]-[1,2,4]triazolo[4,3-a]pyridin-3-one hydrochloride], the Ki stood at 116 ± 19 nM on D2 receptor, 181 ± 22 nM on 5-HT2A receptor, 1430 ± 294 nM on 5-HT6 receptor and 157 ± 13 nM at 5-HT7 receptor.
With `O=c1n(CCCN2CCN(c3ccccc3F)CC2)nc2ccccn12` [10b, 2-[3-[4-(2-fluorophenyl)piperazin-1-yl]propyl]-[1,2,4]triazolo[4,3-a]pyridin-3-one hydrochloride], the Ki at D2 receptor stood at 1650 ± 203 nM; on 5-HT1A receptor, 1550 ± 314 nM; on 5-HT2A receptor it was 969 ± 114 nM; on 5-HT6 receptor, 36400 nM; at 5-HT7 receptor, 7420 ± 625 nM.
The corresponding values for `O=c1n(CCCN2CCN(c3ncccn3)CC2)nc2ccccn12` [10c, 2-[3-(4-pyrimidin-2-ylpiperazin-1-yl)propyl]-[1,2,4]triazolo[4,3-a]pyridin-3-one hydrochloride] are 122 ± 8 nM, 459 ± 36 nM, 178 ± 25 nM, 3250 ± 401 nM and 174 ± 34 nM.
In the case of `CCOc1ccccc1N1CCN(CCCn2nc3ccccn3c2=O)CC1` [10d, 2-[3-[4-(2-ethoxyphenyl)piperazin-1-yl]propyl]-[1,2,4]triazolo[4,3-a]pyridin-3-one hydrochloride], the Ki was 152 ± 17 nM at D2 receptor; 593 ± 81 nM on 5-HT1A receptor; 6710 ± 952 nM on 5-HT2A receptor; 9460 ± 1140 nM at 5-HT6 receptor; 539 ± 68 nM on 5-HT7 receptor.
The corresponding values for `O=c1n(CCCCCCN2CCN(c3cccc(Cl)c3)CC2)nc2ccccn12` [10e, 2-[6-[4-(3-chlorophenyl)piperazin-1-yl]hexyl]-[1,2,4]triazolo[4,3-a]pyridin-3-one hydrochloride] are 137 ± 11 nM, 16 ± 2 nM, 342 ± 48 nM, 1940 ± 281 nM and 278 ± 19 nM.
The corresponding values for `O=c1n(CCCCCCN2CCN(c3ccccc3Cl)CC2)nc2ccccn12` [10f, 2-[6-[4-(2-chlorophenyl)piperazin-1-yl]hexyl]-[1,2,4]triazolo[4,3-a]pyridin-3-one hydrochloride] are 522 ± 71 nM, 49 ± 4 nM, 2600 ± 318 nM, 3570 ± 563 nM and 2600 ± 359 nM.
The corresponding values for `O=c1n(CCCCCCN2CCN(c3ccc(Cl)cc3)CC2)nc2ccccn12` [10g, 2-[6-[4-(4-chlorophenyl)piperazin-1-yl]hexyl]-[1,2,4]triazolo[4,3-a]pyridin-3-one hydrochloride] are 362 ± 17 nM, 27 ± 3 nM, 234 ± 46 nM, 2060 ± 173 nM and 435 ± 61 nM.
`O=c1n(CCCCCCN2CCN(c3ccc(Cl)c(Cl)c3)CC2)nc2ccccn12` [10h, 2-[6-[4-(3,4-dichlorophenyl)piperazin-1-yl]hexyl]-[1,2,4]triazolo[4,3-a]pyridin-3-one hydrochloride]: the Ki on D2 receptor worked out at 310 ± 42 nM; at 5-HT1A receptor, 19 ± 3 nM; at 5-HT2A receptor it was 77 ± 14 nM; at 5-HT6 receptor, 576 ± 82 nM; at 5-HT7 receptor it was 196 ± 29 nM.
On the same counts, the results for `O=c1n(CCCCCCN2CCN(c3ccccc3F)CC2)nc2ccccn12` [10i, 2-[6-[4-(2-fluorophenyl)piperazin-1-yl]hexyl]-[1,2,4]triazolo[4,3-a]pyridin-3-one hydrochloride] are 195 ± 11 nM, 7 ± 2 nM, 417 ± 52 nM, 4740 ± 687 nM and 993 ± 214 nM.
The corresponding values for `COc1ccccc1N1CCN(CCCCCCn2nc3ccccn3c2=O)CC1` [10j, 2-[6-[4-(2-methoxyphenyl)piperazin-1-yl]hexyl]-[1,2,4]triazolo[4,3-a]pyridin-3-one hydrochloride] are 57 ± 6 nM, 4 ± 1 nM, 841 ± 105 nM, 11500 nM and 219 ± 36 nM.
In the case of `COc1cccc(N2CCN(CCCCCCn3nc4ccccn4c3=O)CC2)c1` [10k, 2-[6-[4-(3-methoxyphenyl)piperazin-1-yl]hexyl]-[1,2,4]triazolo[4,3-a]pyridin-3-one hydrochloride], the Ki at D2 receptor came to 21 ± 3 nM; at 5-HT1A receptor, 9 ± 2 nM; on 5-HT2A receptor it was 343 ± 21 nM; on 5-HT6 receptor, 3500 ± 537 nM; at 5-HT7 receptor it was 1020 ± 184 nM.
On the same counts, the results for `COc1ccc(N2CCN(CCCCCCn3nc4ccccn4c3=O)CC2)cc1` [10l, 2-[6-[4-(4-methoxyphenyl)piperazin-1-yl]hexyl]-[1,2,4]triazolo[4,3-a]pyridin-3-one hydrochloride] are 350 ± 54 nM, 826 ± 91 nM, 3900 ± 432 nM, 5620 ± 743 nM and 8300 ± 1350 nM.
On the same counts, the results for `CCOc1ccccc1N1CCN(CCCCCCn2nc3ccccn3c2=O)CC1` [10m, 2-[6-[4-(2-ethoxyphenyl)piperazin-1-yl]hexyl]-[1,2,4]triazolo[4,3-a]pyridin-3-one hydrochloride] are 1640 ± 219 nM, 9 ± 2 nM, 1540 ± 225 nM, 4820 ± 581 nM and 251 ± 52 nM.
On the same counts, the results for `O=c1n(CCCCCCN2CCN(c3ccccn3)CC2)nc2ccccn12` [10n, 2-[6-[4-(2-pyridyl)piperazin-1-yl]hexyl]-[1,2,4]triazolo[4,3-a]pyridin-3-one hydrochloride] are 10 ± 2 nM, 18 ± 3 nM, 1720 ± 193 nM, 4640 ± 341 nM and 1050 ± 91 nM.
Turning to `O=c1n(CCCCCCN2CCN(c3ncccn3)CC2)nc2ccccn12` [10o, 2-[6-(4-pyrimidin-2-ylpiperazin-1-yl)hexyl]-[1,2,4]triazolo[4,3-a]pyridin-3-one hydrochloride], the Ki at D2 receptor amounted to 202 ± 31 nM; at 5-HT1A receptor, 104 ± 12 nM; on 5-HT2A receptor it was 10600 nM; on 5-HT6 receptor, 7220 ± 827 nM; at 5-HT7 receptor it was 5570 ± 438 nM.
The corresponding values for `O=c1n(CCCCCCN2CCN(c3ccccc3)CC2)nc2ccccn12` [10p, 2-[6-(4-phenylpiperazin-1-yl)hexyl]-[1,2,4]triazolo[4,3-a]pyridin-3-one hydrochloride] are 1530 ± 116 nM, 28 ± 4 nM, 391 ± 27 nM, 3330 ± 197 nM and 404 ± 67 nM.
The corresponding values for `O=c1n(CCCCCCN2CCN(c3ccccc3-c3ccccc3)CC2)nc2ccccn12` [10r, 2-[6-[4-(2-phenylphenyl)piperazin-1-yl]hexyl]-[1,2,4]triazolo[4,3-a]pyridin-3-one hydrochloride] are 191 ± 14 nM, 20 ± 3 nM, 328 ± 49 nM, 1190 ± 165 nM and 19 ± 3 nM.

By Ki is commonly meant a measure of affinity in units of concentration, obtained from inhibition or displacement.
